PMC10420992, “Phosphodiesterase 5 and Arginase Inhibitory Activities of the Extracts from Some Members of Nelumbonaceae and Nymphaeaceae Families” (Molecules, 2023)

Assays:
[1] = test system: PDE5 enzymes isolated from the mice lungs; set-up: method as in PMID 25920267; settings: cited from earlier work
[2] = test system: rabbit corpus cavernosum tissues; set-up: method as in PMID 17968465; settings: rabbit tissue; cited from earlier work
PDE5 (PDE5A1) = biological target: T1, PDE5 (PDE5A1) (Homo sapiens, UniProt O76074); test: Phosphodiesterase 5 inhibition assay (two-step radioactive procedure, [3H]cGMP); type: biochemical; settings: for IC50: flavonoids, mean ± SD, triplicate
T1 construct: made in house; host or cells: HEK293 (transient transfection; supernatant of sonicated homogenate)

[3] = biological target: PDE5 enzymes isolated from the lungs and hearts of male guinea pigs; settings: cited from earlier work

PDE5 IC50 level (in words) (PDE5 (PDE5A1))	IC50 (PDE5 (PDE5A1)) [µM]	PDE5 inhibitory activity of 3 relative to 1, 2 and 4 (PDE5 (PDE5A1); times stronger than 1, 2, and 4)	SMILES	PDE5 inhibition (in words) [1]	Relaxant effect on corpus cavernosum tissues [2]	IC50 [3] [µM]
			O=c1c(O)c(-c2ccc(O)cc2)oc2cc(O)cc(O)c12 [Compound 5, kaempferol]	inhibit PDE5 enzymes		
			COc1ccc(C[C@@H]2c3cc(Oc4cc(C[C@@H]5c6cc(OC)c(OC)cc6CCN5C)ccc4O)c(OC)cc3CCN2C)cc1 [Neferine]		relaxant effect	
micromolar level	0.61 ± 0.11	7–9 times	O=c1c(O)c(-c2ccc(O)c(O)c2)oc2cc(O)cc(O)c12 [Compound 3, quercetin]	inhibit PDE5 enzymes		
micromolar level	5.74 ± 2.11		COc1c(-c2ccc(O)c(O)c2)oc2cc(O)cc(O)c2c1=O [Compound 4, 3-O-methylquercetin]			86.9
micromolar level	4.09 ± 0.76		O=c1c(O)c(-c2ccc(O)c(O[C@@H]3OC[C@@H](O)[C@H](O)[C@H]3O)c2)oc2cc(O)cc(O)c12 [Compound 1, quercetin 3’-O-β-xylopyranoside]			
micromolar level	5.63 ± 0.2		COc1c(-c2ccc(O)c(OC3OCC(O)C(O)C3O)c2)oc2cc(O)cc(O)c2c1=O (stereo not drawn) [Compound 2, quercetin 3-methyl ether 3’-O-β-xylopyranoside]			
micromolar level	4.41 ± 0.46		COc1c(-c2ccc(O)cc2)oc2cc(O)cc(O)c2c1=O [Compound 6, 3-O-methylkaempferol]			
